Experimental data as given in patent US7064133B2, “Quinoline derivatives process of synthesis and medicaments containing these derivatives” (Bioalliance Pharma, priority 2001, dated 2006).

Assays:
Type in all cases: cell-based
[1] = tested on: integration of viral DNA into the host genome; experiment: Inhibition of the integration of viral DNA into the host genome (PCR, densitometry) in infected CEM cells; conditions: 24 hours
Procedure: This test consists in bringing CEM cells into contact with the supernatant of infected cells containing the infectious virions. After 2 hours, the cells are washed and placed again in RPMI medium containing the compound according to the invention for 24 hours (BioA53). The DNA of the cells is then extracted using a genomic DNA preparation kit (QiaBlood, Qiagen™). This DNA is the target for PCR amplifications aimed at evaluating, on the one hand, the quantity of total viral DNA present in the solution, and, on the other hand, the quantity of viral DNA integrated into the cellular genome. The latter amplification takes place in two stages: the first step uses a PCR primer homologous to a sequence of the retroviral DNA; the second primer is homologous to the repetitive genomic Alu sequences. The second stage is a nested PCR which makes it possible to visualize the retroviral DNA.
The quantity of DNA is evaluated by densitometry after separation of the amplification products on agarose gel.

[2] = tested on: HeLa; experiment: Cytotoxicity, MTT to formazan test, adherent cells; conditions: at 500 μM
Procedure: (§1) The toxicity of the compounds is evaluated by a test of biotransformation of MTT to formazan by cellular mitochondrial dehydrogenases.

[3] = tested on: CEM; experiment: Cytotoxicity, MTT to formazan test, cells in suspension; conditions: at 500 μM
Procedure: as §1

O=C(NCc1ccc(O)c(O)c1)c1ccc2ccc(C(=O)[O-])c(O)c2n1.[Na+] [BioA53, sodium 2-(3,4-dihydroxybenzylcarbamoyl)-8-hydroxyquinoline-7-carboxylate]
decrease in the quantity of DNA integrated ([1]; 50 μM, CEM cells): at least 80%
inhibition of DNA integrated ([1]; 100 μM, CEM cells): inhibition of the entire DNA integrated
quantity of total viral DNA ([1]; treatment of CEM cells with the compound): not affected
cytotoxicity (MTT) [2]: lacks cytotoxicity
cytotoxicity (MTT) [3]: lacks cytotoxicity

O=C(NCc1ccc(O)cc1O)c1ccc2ccc(C(=O)[O-])c(O)c2n1.[Na+] [BioA163, sodium 2-(2,4-dihydroxybenzylcarbamoyl)-8-hydroxyquinoline-7-carboxylate]
cytotoxicity (MTT) [2]: lacks cytotoxicity
cytotoxicity (MTT) [3]: lacks cytotoxicity
